Assay results as given in the PolyMetriX glass transition set.

Molecule `*/C(C#N)=C/c1ccc(N(CC)Cc2ccccc2CN(CC)c2ccc(/C=C(\C#N)S(*)(=O)=O)cc2)cc1` (repeat unit) has a glass transition temperature of 190.00 °C.

For `*/C=C(/*)C(CCCCCCC)[Si](C)(C)C` (repeat unit), the glass transition temperature was 150.00 °C.

In the case of `*/C=C(\C#N)C(=O)NC1CCCCC1NC(=O)/C(C#N)=C/c1ccc(/C=C/c2ccc(N(CC)Cc3cccc(CN(CC)c4ccc(/C=C/c5ccc(*)s5)cc4)c3)cc2)s1` (repeat unit), the glass transition temperature is reported as 157.00 °C.

`*/C=C(\C#N)c1cccc(/C(C#N)=C/c2ccc(/C=C/c3ccc(N(CC)Cc4ccccc4CN(CC)c4ccc(/C=C/c5ccc(*)s5)cc4)cc3)s2)c1` (repeat unit) showed a glass transition temperature of 178.00 °C.

With `*/C=C/c1ccc(/N=N/c2ccc(N(C)CCOC(=O)Nc3ccc(C)c(NC(=O)OCCN(C)c4ccc(/N=N/c5ccc(/C=C/C6=CC(=C(C#N)C#N)C=C(*)O6)cc5)cc4)c3)cc2)cc1` (repeat unit) the glass transition temperature was 196.00 °C.

`*/C=C/c1ccc(N(CC)Cc2ccccc2CN(CC)c2ccc(/C=C/c3ccc(/C=C(\C#N)S(=O)(=O)/C(C#N)=C/c4ccc(*)s4)s3)cc2)cc1` (repeat unit) showed a glass transition temperature of 178.00 °C.

Work on `*=CNc1ccc(CCc2ccc(N=*)cc2)cc1` (repeat unit) yielded a glass transition temperature of 125.00 °C.

`*CC(=O)NC(C)C(=O)O*` (repeat unit) gave a glass transition temperature of 54.60 °C.

`*CC(C)(C)COC(=O)Nc1ccc(C)c(NC(=O)O*)c1` (repeat unit) gave a glass transition temperature of -32.00 °C.

`*CC1CCC(COP(=O)(/N=N/c2ccc(-c3ccc(/N=N/P(=O)(O*)OC)cc3)cc2)OC)CC1` (repeat unit) showed a glass transition temperature of 58.00 °C.

`*CC1CCC(COP(=O)(/N=N/c2ccc(C(=O)c3ccc(/N=N/P(=O)(O*)OC)cc3)cc2)OC)CC1` (repeat unit) gave a glass transition temperature of 52.00 °C.

Work on `*CCCCCCCCOC(=O)Nc1ccc(C)c(NC(=O)O*)c1` (repeat unit) yielded a glass transition temperature of 64.00 °C.

For `*CCCCCCOC(=O)Nc1ccc(NC(=O)OCCCCCCOc2ccc(-c3ccc(O*)cc3)cc2)c(C)c1` (repeat unit), the glass transition temperature was 89.00 °C.

`*CCCCCCOP(=O)(/N=N/c1ccc(C(=O)c2ccc(/N=N/P(=O)(O*)OC)cc2)cc1)OC` (repeat unit) showed a glass transition temperature of 31.00 °C.

For `*CCCCCOC(=O)c1ccccc1C(=O)[O][Pb][O]C(=O)c1ccccc1C(=O)OCCCCCOC(=O)Nc1ccc(C)c(NC(=O)O*)c1` (repeat unit), the glass transition temperature was -11.30 °C.

`*CCCCOC(=O)Nc1ccc(C)c(NC(=O)O*)c1` (repeat unit) showed a glass transition temperature of 42.00 °C.

`*CCN(CCCCCCOc1ccc(/C=C/c2ccc([N+](=O)[O-])cc2)cc1)CCOC(=O)Nc1ccc(C)c(NC(=O)O*)c1` (repeat unit) showed a glass transition temperature of 58.50 °C.

Molecule `*CCN(CCOC(=O)NCC1(C)CC(NC(=O)O*)CC(C)(C)C1)c1ccc(/N=N/c2ccc([N+](=O)[O-])cc2)cc1` (repeat unit) has a glass transition temperature of 137.00 °C.

Work on `*CCN(CCOC(=O)Nc1cccc(NC(=O)O*)c1C)c1ccc(/N=N/c2ccc([N+](=O)[O-])cc2)cc1` (repeat unit) yielded a glass transition temperature of 147.00 °C.

Molecule `*CCN(CCOC(=O)c1ccc(C(=O)O*)c(OCCCCC)c1)c1ccc(/N=N/c2nc(C#N)c(C#N)[nH]2)cc1` (repeat unit) has a glass transition temperature of 131.00 °C.

`*CCOC(=O)Nc1cc(NC(=O)O*)ccc1C` (repeat unit) gave a glass transition temperature of 52.00 °C.

`*CCOC(=O)c1ccc(-c2ccc(C(=O)O*)cc2C)c(C)c1` (repeat unit) gave a glass transition temperature of 73.00 °C.

Work on `*CCOCCOC(=O)C(CCCCCCC)C(=O)O*` (repeat unit) yielded a glass transition temperature of -58.00 °C.

For `*CCOCCOCCOCCOCCOCCOC(=O)c1cc(OCCCCCCOc2ccc(-c3ccc(OC)cc3)cc2)cc(C(=O)O*)c1` (repeat unit), the glass transition temperature was 12.50 °C.

Molecule `*CCOCCOP(=O)(/N=N/c1ccc(-c2ccc(/N=N/P(=O)(O*)OC)cc2)cc1)OC` (repeat unit) has a glass transition temperature of 22.00 °C.

`*CCOCCOP(=O)(/N=N/c1ccc(C(=O)c2ccc(/N=N/P(=O)(O*)OC)cc2)cc1)OC` (repeat unit) gave a glass transition temperature of 33.00 °C.

For `*CCOCCOP(=O)(/N=N/c1ccc(Oc2ccc(/N=N/P(=O)(O*)OC)cc2)cc1)OC` (repeat unit), the glass transition temperature was 32.00 °C.

Molecule `*CCOP(=O)(/N=N/c1ccc(CCOC(=O)c2cc(C(=O)OCCc3ccc(/N=N/P(=O)(O*)OC)cc3)cc(C(C)(C)C)c2)cc1)OC` (repeat unit) has a glass transition temperature of 84.00 °C.

For `*[CH2][Ge]([CH3])([CH3])[CH2]c1cocc1*` (repeat unit), the glass transition temperature was -28.00 °C.

In the case of `*N(C)[Si](*)(C)C=C` (repeat unit), the glass transition temperature is reported as -20.00 °C.

In the case of `*N(C)[Si](C)(C)N(C)[Si](*)(C)CC` (repeat unit), the glass transition temperature is reported as -20.00 °C.

For `*N=P(*)(C)C` (repeat unit), the glass transition temperature was -42.00 °C.

`*N=P(*)(C)CCCCCC` (repeat unit) gave a glass transition temperature of -69.00 °C.

With `*N=P(*)(CCC)CCC` (repeat unit) the glass transition temperature was 10.00 °C.

Molecule `*NC1CC(C)(C)CC(C)(CNC(=O)CCCCC(*)=O)C1` (repeat unit) has a glass transition temperature of 150.80 °C.

Work on `*Nc1cc(NC(=O)C(*)=O)ccc1C` (repeat unit) yielded a glass transition temperature of -54.6 °C.

Molecule `*Nc1cc(NC(=O)c2cc(OCCN(C)c3ccc(S(=O)(=O)C(F)(F)C(F)(F)C(F)(F)C(F)(F)C(F)(F)C(F)(F)C(F)(F)C(F)(F)F)cc3)cc(C(*)=O)c2)cc(C(=O)OCCN(C)c2ccc(C#N)cc2)c1` (repeat unit) has a glass transition temperature of 157.00 °C.

Work on `*Nc1cc(NC(=O)c2cc(OCCN(C)c3ccc([N+](=O)[O-])cc3)cc(C(*)=O)c2)cc(C(=O)OC)c1` (repeat unit) yielded a glass transition temperature of 177.00 °C.

Work on `*Nc1cc(NC(=O)c2cc(OCCN(C)c3ccc([N+](=O)[O-])cc3)cc(C(*)=O)c2)cc(C(=O)OC2CC(C)CCC2C(C)C)c1` (repeat unit) yielded a glass transition temperature of 193.00 °C.

In the case of `*Nc1cc(NC(=O)c2ccc(C(*)=O)cc2)cc(C(=O)OCCOc2ccc(/C=C/C(=O)c3ccccc3)cc2)c1` (repeat unit), the glass transition temperature is reported as 233.00 °C.

`*Nc1cc([N+](=O)[O-])c(NC(=O)CCCCCCCCC(*)=O)cc1/C=C/c1ccc(N(C)C)cc1` (repeat unit) gave a glass transition temperature of 159.00 °C.

In the case of `*Nc1cc([N+](=O)[O-])c(NC(=O)CCCCCCCCCCC(*)=O)cc1/C=C/c1ccc(N(C)C)cc1` (repeat unit), the glass transition temperature is reported as 144.00 °C.

Molecule `*Nc1ccc(NC(=O)c2ccc(NC(=O)CCCCCCC(=O)Nc3ccc(C(*)=O)cc3)cc2)cc1C(=O)OCCCCCCCCCCCCCCCCCC` (repeat unit) has a glass transition temperature of 305.00 °C.

In the case of `*OC(=O)C(C)NC(=O)CCCCCC(=O)NC(C)C(=O)OC1COC2C(*)COC12` (repeat unit), the glass transition temperature is reported as 45.00 °C.

Work on `*OC(=O)C(C)NC(=O)CCCCCCC(=O)NC(C)C(=O)OC1COC2C(*)COC12` (repeat unit) yielded a glass transition temperature of 57.00 °C.

Molecule `*OC(=O)C(C)NC(=O)CCCCCCCC(=O)NC(C)C(=O)OC1COC2C(*)COC12` (repeat unit) has a glass transition temperature of 46.00 °C.

Work on `*OC(=O)C(C)NC(=O)CCCCCCCCCCC(=O)NC(C)C(=O)OC1COC2C(*)COC12` (repeat unit) yielded a glass transition temperature of 28.00 °C.

With `*OC(=O)C(CC(C)C)NC(=O)CCCCC(=O)NC(CC(C)C)C(=O)OC1COC2C(*)COC12` (repeat unit) the glass transition temperature was 91.00 °C.

Work on `*[O][Ca][O]C(=O)c1ccccc1C(=O)OCCCCCOC(=O)Nc1cc(NC(=O)OCCCCCOC(=O)c2ccccc2C(*)=O)ccc1C` (repeat unit) yielded a glass transition temperature of 5.10 °C.

`*[O][Zn][O]C(=O)c1ccccc1C(=O)OCCCCCOC(=O)Nc1cc(NC(=O)OCCCCCOC(=O)c2ccccc2C(*)=O)ccc1C` (repeat unit) gave a glass transition temperature of 4.20 °C.

`*Oc1c(F)c(F)c(-c2c(F)c(F)c(Oc3ccc(Cc4ccc(*)c(C=O)c4)cc3C=O)c(F)c2F)c(F)c1F` (repeat unit) showed a glass transition temperature of 198.00 °C.

Molecule `*Oc1cc(OCCOC)c(OC(=O)c2ccc(C(*)=O)cc2OCCOCC)cc1OCCOC` (repeat unit) has a glass transition temperature of 99.00 °C.

`*Oc1ccc(/N=C/CCC/C=N/c2ccc(OC(=O)Nc3cc(NC(*)=O)ccc3C)cc2)cc1` (repeat unit) showed a glass transition temperature of 69.00 °C.

Molecule `*Oc1ccc(/N=N/c2c(C)cc(Cc3cc(C)c(/N=N/c4ccc(OC(=O)c5ccc(C(*)=O)cc5)cc4)c(C)c3[N+](=O)[O-])c([N+](=O)[O-])c2C)cc1` (repeat unit) has a glass transition temperature of 203.00 °C.

In the case of `*Oc1ccc(CC(C#N)(Cc2ccc(*)cc2)c2ccccc2)cc1` (repeat unit), the glass transition temperature is reported as 143.00 °C.

Work on `*Oc1ccc(CC(Cc2ccc(*)cc2)(C(=O)OCC)C(=O)OCC)cc1` (repeat unit) yielded a glass transition temperature of 54.00 °C.

With `*Oc1ccc(CC(NC(=O)CCc2ccc(OC(=O)COCCOCC(*)=O)cc2)C(=O)OC(C)C)cc1` (repeat unit) the glass transition temperature was 58.00 °C.

Work on `*Oc1ccc(CC(NC(=O)CCc2ccc(OC(=O)COCCOCC(*)=O)cc2)C(=O)OCCCC)cc1` (repeat unit) yielded a glass transition temperature of 45.00 °C.

`*Oc1ccc(CC(NC(=O)Cc2ccc(OC(=O)COCCOCC(*)=O)cc2)C(=O)OCCCCCCCC)cc1` (repeat unit) showed a glass transition temperature of 23.00 °C.

For `*Oc1ccc(Cc2ccc(OC(*)=O)c(C)c2)cc1C` (repeat unit), the glass transition temperature was 51.00 °C.

In the case of `*Oc1ccc(Cc2ccc(OC(=O)c3cc(OCCCCC)cc(C(*)=O)c3)cc2)cc1` (repeat unit), the glass transition temperature is reported as 110.00 °C.

For `*Oc1ccc(OC(=O)c2cc(OCCCCCCCCCCCC)c(C(*)=O)cc2OCCCCCCCCCCCC)cc1C` (repeat unit), the glass transition temperature was 112.00 °C.

Work on `*Oc1ccc(OC(=O)c2ccc(C(*)=O)cc2Oc2ccc(C(C)(C)c3ccccc3)cc2)cc1` (repeat unit) yielded a glass transition temperature of 93.00 °C.

`*Oc1ccc(S(=O)(=O)c2ccc(OC(=O)c3cc(CCCCC)cc(C(*)=O)c3)cc2)cc1` (repeat unit) gave a glass transition temperature of 170.00 °C.

`*c1ccc(OC(=O)c2cc(C(=O)Oc3ccc(C4(*)OC(=O)c5ccccc54)cc3)cc(C(C)(C)C)c2)cc1` (repeat unit) gave a glass transition temperature of 279.00 °C.

Work on `*c1ccc2c(c1)C(=O)N(c1cc(C(=O)Oc3ccc(C(c4ccc(OC(=O)c5ccc(C)c(N6C(=O)c7ccc(C(*)(C(F)(F)F)C(F)(F)F)cc7C6=O)c5)cc4)(C(F)(F)F)C(F)(F)F)cc3)ccc1C)C2=O` (repeat unit) yielded a glass transition temperature of 289.00 °C.
